Source: patent publication US5444042A, “Method of treatment of neurodegeneration with calpain inhibitors” (Cortex Pharmaceuticals, priority 1994, dated 1995)
Where a SMILES comes first, the peptide text is derived from it.

Assays:
Calpain I [1] = target: T1, Calpain I (Homo sapiens, UniProt P07384); assay: Calpain I 14C-methylated casein proteolysis (Table 1A); type: biochemical
T1 sequence (P07384 1-714): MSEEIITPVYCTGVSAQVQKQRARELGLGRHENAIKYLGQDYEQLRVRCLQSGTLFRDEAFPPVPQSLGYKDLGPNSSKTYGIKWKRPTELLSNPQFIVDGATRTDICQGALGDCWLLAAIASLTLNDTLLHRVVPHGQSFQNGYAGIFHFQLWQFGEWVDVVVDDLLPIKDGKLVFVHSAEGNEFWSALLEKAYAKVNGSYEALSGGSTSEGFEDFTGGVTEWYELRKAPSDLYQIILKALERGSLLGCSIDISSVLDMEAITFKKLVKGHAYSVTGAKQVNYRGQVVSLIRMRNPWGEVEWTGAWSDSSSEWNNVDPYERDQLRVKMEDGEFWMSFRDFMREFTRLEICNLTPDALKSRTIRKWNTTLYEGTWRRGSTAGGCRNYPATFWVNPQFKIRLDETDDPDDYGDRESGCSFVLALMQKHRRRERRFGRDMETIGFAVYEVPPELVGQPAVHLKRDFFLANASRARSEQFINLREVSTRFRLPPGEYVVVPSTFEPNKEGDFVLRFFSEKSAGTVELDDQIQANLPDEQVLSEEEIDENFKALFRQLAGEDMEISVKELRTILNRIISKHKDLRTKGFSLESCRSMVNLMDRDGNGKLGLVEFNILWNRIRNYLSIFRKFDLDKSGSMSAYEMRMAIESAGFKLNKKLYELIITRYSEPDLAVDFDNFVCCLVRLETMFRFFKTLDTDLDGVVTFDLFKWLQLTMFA
T1 sequence (P04632 1-268 partner): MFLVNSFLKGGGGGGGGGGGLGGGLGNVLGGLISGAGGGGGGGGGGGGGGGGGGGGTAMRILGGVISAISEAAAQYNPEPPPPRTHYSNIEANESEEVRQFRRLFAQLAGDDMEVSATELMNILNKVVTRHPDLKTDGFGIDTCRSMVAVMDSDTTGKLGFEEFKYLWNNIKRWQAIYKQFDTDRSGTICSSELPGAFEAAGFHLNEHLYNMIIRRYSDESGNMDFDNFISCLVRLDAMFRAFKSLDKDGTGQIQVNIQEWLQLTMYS
Protocol: (§1) The isocoumarins are irreversible inhibitors of Calpain. We obtained IC50 values for a variety of these Calpain Inhibitors as a kinetic analysis of these compounds.
(§2) Calpains I and II were purified by the method of (Yoshimura, et al. 1983). (Kitahara 1984) provides an alternative purification scheme. Calpain II may alternatively be purchased from Sigma Chemical Co. as "Calcium Activated Neutral Protease." In this assay, purified Calpain was incubated with ^14 C-methylated casein in the presence of various Heterocyclic Compounds and the amount of acid-soluble radioactivity released by the action of Calpain was measured.

Calpain II [2] = target: T2, Calpain II (Homo sapiens, UniProt P17655); assay: Calpain II 14C-methylated casein proteolysis (Table 1A); type: biochemical
T2 construct: from tissue; purified by a cited method
T2 sequence (P17655 1-700): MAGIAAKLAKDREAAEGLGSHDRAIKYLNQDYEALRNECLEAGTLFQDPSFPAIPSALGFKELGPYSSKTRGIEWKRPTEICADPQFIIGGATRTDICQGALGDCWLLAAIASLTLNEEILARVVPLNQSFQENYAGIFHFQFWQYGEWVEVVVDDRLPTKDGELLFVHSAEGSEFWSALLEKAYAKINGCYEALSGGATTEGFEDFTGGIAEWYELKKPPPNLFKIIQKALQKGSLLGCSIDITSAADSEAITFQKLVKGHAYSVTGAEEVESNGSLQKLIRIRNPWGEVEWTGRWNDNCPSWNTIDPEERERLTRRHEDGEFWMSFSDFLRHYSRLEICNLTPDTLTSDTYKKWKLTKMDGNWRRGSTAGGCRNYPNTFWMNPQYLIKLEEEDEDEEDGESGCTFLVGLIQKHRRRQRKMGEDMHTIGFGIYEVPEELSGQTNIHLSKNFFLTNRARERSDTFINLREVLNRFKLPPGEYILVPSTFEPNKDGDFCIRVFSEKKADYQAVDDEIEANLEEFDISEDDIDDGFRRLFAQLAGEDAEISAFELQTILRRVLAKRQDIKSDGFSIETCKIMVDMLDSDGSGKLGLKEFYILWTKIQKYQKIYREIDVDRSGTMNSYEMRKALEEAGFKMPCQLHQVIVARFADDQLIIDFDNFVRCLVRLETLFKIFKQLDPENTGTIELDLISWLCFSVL
T2 sequence (P04632 1-268 partner): T1 sequence (P04632 1-268 partner)
Protocol: as §1, §2

[3] = tested on: Calpain in crude brain extracts; assay: Ca2+-stimulated spectrin proteolysis in crude brain extracts (Example 2); type: biochemical; conditions: 100 μM
Outline: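 Brain tissue was homogenized in 10 mM Tris pH 7.4, 0.32 M sucrose, 1 mM EGTA and 1 mM DTT, and nuclei and debris were removed. Calpain activity was scored as Ca^2+-stimulated proteolysis of endogenous spectrin.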

Calpain within platelets = assay: Platelet membrane permeation assay, spectrin proteolysis (Examples 4A, 4B); type: cell-based, rat; conditions: for inhibition of Calpain within platelets: 100 μM, A23187 1 μM; for IC50: concentration at which 50% of the Calpain activation present in controls occurred
Outline: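 Rat (Sprague-Dawley) platelets at 10^7 cells/ml in HEPES buffer pH 7.4, preincubated 5 min with inhibitor, then 5 min with 1 μM A23187 to activate calpain. Spectrin proteolysis assessed by SDS-PAGE and anti-spectrin immunoblot, quantified by densitometry.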

Calpain = assay: Kapp/[I] of other irreversible Calpain Inhibitors; type: biochemical
Description: The kinetic constants of other irreversible Calpain Inhibitors include the following with Kapp /[I] in parentheses: E-64 (7500), E64-d (23000) and Z-leu-leu-tyr-CHN2 (230000). E-64 is commercially available from Sigma Chemical Co., and is shown here to be a poor inhibitor of Calpain.

[4] = target: T3, Calpain I from human erythrocytes (Homo sapiens, UniProt P07384); assay: Calpain I Ki (Table 1B(i)); type: biochemical; conditions: Suc-Leu-Tyr-amidomethylcoumarin, HEPES pH 7.2
T3 construct: Calpain I from human erythrocytes and calpain II from rabbit were assayed using Suc-Leu-Tyr-AMC; from tissue; host or cells: human erythrocytes
T3 sequence (P07384 1-714): T1 sequence (P07384 1-714)
T3 sequence (P04632 1-268 partner): T1 sequence (P04632 1-268 partner)
Protocol: The Peptide Keto-Compounds are reversible inhibitors of Calpains and other thiol proteases. […] Cathepsin B from bovine spleen was assayed using Z-Lys-4-nitrophenylphosphate as substrate.
The Ki value for the inhibition of Calpains and cathepsin B by several Peptide Keto-Compounds are shown in μM (micromolar). The values for leupeptin, which is commercially available from Calbiochem of La Jolla, Calif., are shown for comparison.

Calpain I [5] = target: T1, Calpain I; assay: Calpain I KI (Table 1B(ii)); type: biochemical; conditions: for Ki: Table 1B(ii)
Description: (§3) We tested the ability of an additional group of Peptide Keto-Compounds to inhibit several proteases in order to evaluate their specificity for Calpain.

Calpain II [6] = assay: Calpain II KI (Table 1B(ii)); type: biochemical
Description: as §3

Cathepsin B = Cathepsin B (Bos taurus, UniProt P07688); assay: Cathepsin B KI (Table 1B(ii)); type: biochemical; conditions: read-out: KI CathB
Description: as §3

Chym = Chym (Bos taurus, UniProt P00766); assay: Chym KI (Table 1B(ii)); type: biochemical
Description: as §3

PP Elastase = PP Elastase (Sus scrofa, UniProt P00772); assay: PP Elastase KI (Table 1B(ii)); type: biochemical
Sequence of PP Elastase (P00772 27-266): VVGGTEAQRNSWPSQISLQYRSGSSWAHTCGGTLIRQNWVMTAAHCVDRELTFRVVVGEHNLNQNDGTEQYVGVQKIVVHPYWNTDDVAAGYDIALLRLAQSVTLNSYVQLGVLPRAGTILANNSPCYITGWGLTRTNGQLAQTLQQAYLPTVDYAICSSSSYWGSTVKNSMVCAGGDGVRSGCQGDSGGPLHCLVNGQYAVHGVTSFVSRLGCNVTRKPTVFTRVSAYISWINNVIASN
Description: as §3

Stability in plasma = type: in vitro ADME; conditions: unit assumed
Description: (§4) We determined the haft-life of several Peptide Keto-Compounds in both plasma and liver homogenates.

[7] = Stability in liver homogenates; type: in vitro ADME; conditions: unit assumed
Description: as §4

[8] = tested on: rats with middle cerebral artery occlusion; assay: MCA occlusion model (Example 6); type: in vivo, rat; conditions: infusion into femoral vein by 24 hr minipump; 24 hours after occlusion (FIG. 2)
Protocol: Male Sprague-Dawley albino rats weighing approximately 250-300 grams were anesthetized with pentobarbital (70 mg/kg, i.p.). The neck region was shaven and a 2 cm incision was made. The superficial fascia was teased away with tissue forceps and blunt tip tissue scissors using a spread method. The right common carotid artery was isolated away from the vagus nerve and tied off with a single suture (3.0 silk). The external carotid was permanently occluded by suturing. The bifurcation of the internal carotid and pterygopalatine arteries was exposed and a single microaneurysm clip was placed on the pterygopalatine. Another microaneurysm clip was placed on the common carotid just proximal to the external/internal bifurcation. A suture was placed loosely around the common carotid and a lumen was made in the vessel with the tip of a 25 g needle. A 40 mm nylon suture was prepared by melting the tip to smooth the pointed end and marked with a dot exactly 17.5 mm from the melted end. […]
Twenty-four hours after occlusion, the brains of these animals were removed and sliced into 2 mm sections. […] The sizes of the infarcted tissue zone ([…]) and impaired zone (area with partial development of red color) were evaluated using quantitative morphometry. […]

hippocampal slices = assay: Hippocampal slice EPSP recovery from severe hypoxia (FIG. 5); type: cell-based, rat; conditions: one hour incubation
Protocol: These studies were performed in a manner similar to that of Example 7B, except using a hypoxic environment in place of the anoxia of Example 7B. […] The control slices experienced little or no recovery.

CC(C)(C)OC(=O)N[C@@H](Cc1ccccc1)C(=O)Nc1ccc2c(Cl)c(OCCCSC(=N)N)oc(=O)c2c1 [BOC-L-Phe-NH-CiTPrOIC, 7-(N-t-butyloxycarbonyl-L-phenylalanylamino)-4-chloro-3-(3-isothiureidopropoxy)isocoumarin]
IC50 Calpain I (Calpain I [1]): no inhibition
IC50 (Calpain II [2]): > 200 µM

CC(=O)Nc1ccc2c(Cl)c(OCCCSC(=N)N)oc(=O)c2c1 [CH3 CONH-CiTPrOIC, 7-(acetylamino)-4-chloro-3-(3-isothiureidopropoxy)isocoumarin]
IC50 (Calpain I [1]): 700 µM
IC50 (Calpain II [2]): 80 µM
inhibition of spectrin proteolysis in crude brain extracts [3]: significant inhibition
inhibition of Calpain within platelets (Calpain within platelets): significant inhibition

CCOC(=O)[C@H]1O[C@@H]1C(=O)N[C@@H](CC(C)C)C(=O)NCCC(C)C [Example E64-d, Loxastatin]
Kapp/[I] Calpain (Calpain): 23000

CC(C)C[C@H](NC(=O)[C@H]1O[C@@H]1C(=O)O)C(=O)NCCCCN=C(N)N [Example E-64, E-64, reference compound]
Kapp/[I] Calpain (Calpain): 7500
effect on intracellular (platelet) Calpain (Calpain within platelets; concentration not given): little effect

N=C(N)SCCCOc1oc(=O)c2cc(NC(=O)NCc3ccccc3)ccc2c1Cl [PhCH2 NHCONH-CiTPrOIC, 7-(benzylcarbamoylamino)-4-chloro-3-(3-isothiureidopropoxy)isocoumarin]
IC50 (Calpain I [1]): 80 µM
IC50 (Calpain II [2]): 30 µM
inhibition of spectrin proteolysis in crude brain extracts [3]: significant inhibition
inhibition of Calpain within platelets (Calpain within platelets): significant inhibition

COC(=O)C(=O)C(C)NC(=O)C(C)NC(=O)C(C)NC(=O)OCc1ccccc1 (stereo not drawn) [Z-Ala-Ala-Ala-CO2 Me]
Ki [4]: 200 µM

CCNC(=O)C(=O)[C@H](CC)NC(=O)[C@H](CC(C)C)NC(=O)OCc1ccccc1 [Z-Leu-Abu-CONHEt, Z-Leu-Abu-CONH-Et]
Ki (Calpain I [5]): 0.5 µM
better inhibitor of calpain I than Z-Leu-Phe-CONH-Et (Calpain I [5]; ratio of KI values): 14 fold
Ki (Calpain II [6]): 0.23 µM
Ki (Cathepsin B): 2.4 µM
Ki (Chym): > 150 µM
Ki (PP Elastase): 65 µM
t1/2 plasma (Stability in plasma): > 1 h
t1/2 liver [7]: > 1 h
IC50 (Calpain within platelets): 1.5 µM
size of infarcted area [8]: reduction in the size of the infarcted area

CCNC(=O)C(=O)[C@H](Cc1ccccc1)NC(=O)[C@H](CC(C)C)NC(=O)OCc1ccccc1 [Z-Leu-Phe-CONHEt, Z-Leu-Phe-CONH-Et]
Ki (Calpain I [5]): 7 µM
Ki (Calpain II [6]): 0.32 µM
Ki (Cathepsin B): 6 µM
Ki (Chym): 73 µM
Ki (PP Elastase): > 150 µM
t1/2 plasma (Stability in plasma): > 1 h
t1/2 liver [7]: > 1 h
IC50 (Calpain within platelets): 1.7 µM
size of infarcted area [8]: reduction in the size of the infarcted area
percent recovery of EPSP from severe hypoxia (FIG. 5) (hippocampal slices): ~100%

CC(C)C[C@H](NC(=O)OCc1ccccc1)C(=O)N[C@@H](CC(C)C)C(=O)N[C@@H](Cc1ccc(O)cc1)C(=O)C=[N+]=[N-] [Z-leu-leu-tyr-CHN2] (HELM PEPTIDE1{[O=C(OCc1ccccc1)[*:2]].L.L.Y.[[N-]=[N+]=C[*:1]]}$$$$V2.0)
Kapp/[I] Calpain (Calpain): 230000
